Assay results as given in US12427146B2, “C-terminal SRC kinase inhibitors” (INVENTISBIO CO., LTD., priority 2018, dated 2025).

Columns and labels:
LCK protein = LCK protein (Homo sapiens (Human), UniProt P06239); test: LCK Inhibition Assay; type: biochemical
Method: Test compound was dissolved in DMSO at 10 mM. 45 uL of compound was transfer into a 384-well compound source plate (LABCYTE cat #P-05525) and serially diluted at 1:3 ratio to create a 11-point dilutions. The same volume of DMSO was adopted as high control. 20 nL of these compounds DMSO dilutes were dispensed into a new 384-well assay plate by Echo 550. LCK protein (0.50 nM, Cama Biosciences, cat #08-170), florescent labeled substrate FLPeptide4 (2 μM, PerkinElmer, cat #760348) was prepared in kinase assay buffer (50 mM HEPES (pH 7.5), 10 mM MgCl2, 0.01% Brij-35, 2 mM DTT and 0.005 mg/ml BSA). 15 uL of kinase assay buffer containing LCK protein and substrate was transferred to assay plate and incubate at RT for 30 minutes. Kinase assay buffer supplemented with substrate peptides was employed as low control to monitor the background. 400 μM ATP was prepared in kinase assay buffer and 5 μL of ATP solution was added to each well to start the reaction. The assay plate was incubated at 25° C. for 90 minutes and the reaction was stopped by adding 40 μL of 0.5 M EDTA.
(§1) Phosphorylated fluorescent-tagged peptides were differentiated from non-phosphorylated peptides by separating using Caliper EZ Reader II and the detection was directly converted to conversion ratio.
(§2) For estimation of IC50, the % substrate conversion values are transformed to % Inhibition Ratio by applying the following equation: […]

CSK protein = CSK protein (Homo sapiens (Human), UniProt P41240); test: CSK Inhibition Assay; type: biochemical
Method: Test compound was dissolved in DMSO at 10 mM. 45 uL of compound was transferred into a 384-well compound source plate (LABCYTE cat #P-05525) and serially diluted at 1:3 ratio to create a 11-point dilutions. The same volume of DMSO was adopted as high control. 20 nL of these compounds DMSO dilutes were dispensed into a new 384-well assay plate by Echo 550. […] 15 uL of kinase assay buffer containing CSK protein and substrate was transferred to assay plate and incubated at RT for 30 minutes. Kinase assay buffer supplemented with substrate peptides was employed as low control to monitor the background. 4 μM of ATP was prepared in kinase assay buffer and 5 μL of ATP solution was added to each well to start the reaction. The assay plate was incubated at 25° C. for 90 minutes and the reaction was stopped by adding 40 μL of 0.5 M EDTA.
as §1, §2

Chain of LCK protein (P06239 whole entry): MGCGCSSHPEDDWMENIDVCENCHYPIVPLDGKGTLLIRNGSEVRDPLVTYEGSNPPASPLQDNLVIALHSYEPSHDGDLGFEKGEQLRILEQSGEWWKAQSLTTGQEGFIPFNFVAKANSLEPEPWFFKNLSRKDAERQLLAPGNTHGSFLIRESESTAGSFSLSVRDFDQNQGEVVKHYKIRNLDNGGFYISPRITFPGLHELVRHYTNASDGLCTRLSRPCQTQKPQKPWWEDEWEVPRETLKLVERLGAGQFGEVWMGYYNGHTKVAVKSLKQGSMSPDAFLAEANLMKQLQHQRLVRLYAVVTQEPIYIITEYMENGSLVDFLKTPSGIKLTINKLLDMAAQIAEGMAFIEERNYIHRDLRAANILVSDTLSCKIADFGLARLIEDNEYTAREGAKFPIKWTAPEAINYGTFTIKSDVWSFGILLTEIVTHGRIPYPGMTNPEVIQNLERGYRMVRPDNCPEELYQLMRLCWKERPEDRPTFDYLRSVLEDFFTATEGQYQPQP

Row | Compound | IC50 (LCK protein) | IC50 (CSK protein)
1 | Nc1nccc(-c2sc(-c3ccc(F)cn3)nc2-c2cccc(NS(=O)(=O)c3c(Cl)cccc3Cl)c2F)n1 [Compound 132] | 100 to 1000 nM | 62 nM
2 | CNc1nccc(-c2sc(N3CCOCC3)nc2-c2cccc(NS(=O)(=O)c3c(F)cccc3F)c2F)n1 [Compound 116] | 100 to 1000 nM | 13.5 nM
3 | Cc1ncc(-c2nc(-c3cccc(NS(=O)(=O)c4c(Cl)cccc4Cl)c3F)c(-c3ccnc(NCCO)n3)s2)cn1 [Compound 150] | > 1000 nM | 8.1 nM
4 | Nc1nccc(-c2cn(C3CCCCC3)nc2-c2cccc(NS(=O)(=O)c3c(F)cccc3F)c2F)n1 [Compound 110] | > 1000 nM | 221 nM
5 | Cc1ccc(Cl)c(S(=O)(=O)Nc2cccc(-c3nc(-c4cncc(F)c4)sc3-c3ccnc(N)n3)c2F)c1Cl [Compound 61] | > 1000 nM | 12.6 nM
6 | CNc1nccc(-c2sc(-c3ccc(F)cn3)nc2-c2cccc(NS(=O)(=O)c3c(F)ccc(Cl)c3F)c2F)n1 [Compound 58] | > 1000 nM | 31.5 nM
7 | CNc1nccc(-c2sc(N3CCCCC3)nc2-c2cccc(NS(=O)(=O)c3c(Cl)ccc(C)c3Cl)c2F)n1 [Compound 177] | > 1000 nM | 14.1 nM
8 | Nc1nccc(-c2sc(-c3cncnc3)nc2-c2cccc(NS(=O)(=O)c3c(F)cccc3F)c2F)n1 [Compound 29] | > 1000 nM | 20.5 nM
9 | CCN(CC)c1nc(-c2cccc(NS(=O)(=O)c3c(F)cccc3F)c2F)c(-c2ccnc(NC)n2)s1 [compound 153] | 100 to 1000 nM | 7.4 nM
10 | COc1ccn2c(-c3ccnc(NCCO)n3)c(-c3cccc(NS(=O)(=O)c4c(Cl)cccc4Cl)c3F)nc2c1 [Compound 159] | > 1000 nM | 28.4 nM
11 | CNc1nccc(-c2sc(N3CCCCC3)nc2-c2cccc(NS(=O)(=O)c3c(F)ccc(C)c3F)c2F)n1 [Compound 161] | > 1000 nM | 10.1 nM
12 | CNc1nccc(-c2sc(-c3cncnc3)nc2-c2cccc(NS(=O)(=O)c3c(F)cccc3F)c2F)n1 [Compound 63] | > 1000 nM | 20.6 nM
13 | Nc1nccc(-c2sc(-c3ccc(F)cc3)nc2-c2cccc(NS(=O)(=O)c3c(F)cccc3F)c2F)n1 [Compound 14] | > 1000 nM | 55.3 nM
14 | O=S(=O)(Nc1cccc(-c2nc(C3CCCCC3)sc2-c2ccnc(Nc3ccc(N4CCOCC4)nc3)n2)c1F)c1c(F)cccc1F [Compound 121] | < 100 nM | 15.5 nM
15 | CNc1nccc(-c2sc(-c3cncc(F)c3)nc2-c2cccc(NS(=O)(=O)c3c(F)cc(OC)cc3F)c2F)n1 [Compound 64] | > 1000 nM | 18.3 nM
16 | Cc1ccc(-c2nc(-c3cccc(NS(=O)(=O)c4c(F)ccc(C)c4F)c3F)c(-c3ccnc(NC4CC4)n3)s2)nn1 [Compound 173] | > 1000 nM | 10.3 nM
17 | CNc1nccc(-c2sc(N3CCCCC3)nc2-c2cccc(NS(=O)(=O)c3c(F)cccc3F)c2F)n1 [Compound 115] | > 1000 nM | 7.1 nM
18 | Nc1nccc(-c2sc(N3CCCC3=O)nc2-c2cccc(NS(=O)(=O)c3c(F)cccc3F)c2F)n1 [compound 112] | > 1000 nM | 30.3 nM
19 | Nc1nccc(-c2sc(-c3ccccc3)nc2-c2cccc(NS(=O)(=O)c3ccccc3)c2F)n1 [Compound 24] | > 1000 nM | 501 nM
20 | CNc1nccc(-c2c(-c3cccc(NS(=O)(=O)c4c(Cl)ccc(C)c4Cl)c3F)nc3cc(OC)ccn23)n1 [Compound 146] | > 1000 nM | 41.3 nM
21 | Nc1nccc(-c2sc(-c3ccc(C(F)(F)F)cc3)nc2-c2cccc(NS(=O)(=O)c3c(F)cccc3F)c2F)n1 [Compound 4] | > 1000 nM | 328 nM
22 | Cc1ccc(Cl)c(S(=O)(=O)Nc2cccc(-c3nc(-c4cncc(F)c4)sc3-c3ccnc(NC4CC4)n3)c2F)c1Cl [Compound 139] | > 1000 nM | 2.7 nM
23 | Cc1ncc(-c2nc(-c3cccc(NS(=O)(=O)c4c(Cl)ccc(C)c4Cl)c3F)c(-c3ccnc(NCCO)n3)s2)cn1 [Compound 152] | > 1000 nM | 6 nM
24 | CNc1nccc(-c2sc(-c3ccc(F)cc3)nc2-c2cccc(NS(=O)(=O)c3c(F)ccc(C)c3F)c2F)n1 [Compound 70] | > 1000 nM | 92.3 nM
25 | O=S(=O)(Nc1cccc(-c2nc(N3CCC3)sc2-c2ccnc(NC3CC3)n2)c1F)c1c(F)ccc(Cl)c1F [Compound 186] | > 1000 nM | 4.1 nM
26 | Nc1nccc(-c2sc(-c3ccc(=O)[nH]c3)nc2-c2cccc(NS(=O)(=O)c3c(F)cccc3F)c2F)n1 [compound 28] | > 1000 nM | 63.3 nM

Now from value to compound:

Row | IC50 (LCK protein) | IC50 (CSK protein) | Compound
27 | > 1000 nM | 400 nM | Nc1nccc(-c2c(-c3cccc(NS(=O)(=O)c4c(F)cccc4F)c3F)nc3cc(C(F)(F)F)ccn23)n1 [Compound 105]
28 | > 1000 nM | 77 nM | Nc1nccc(-c2c(-c3cccc(NS(=O)(=O)c4c(F)cccc4F)c3F)nc3ccccn23)n1 [compound 90]
29 | > 1000 nM | 237 nM | Nc1nccc(-c2sc(-c3ccccc3)nc2-c2cncc(NS(=O)(=O)c3c(F)cccc3F)c2)n1 [compound 25]
30 | > 1000 nM | 16.6 nM | Cc1ncc(-c2nc(-c3cccc(NS(=O)(=O)c4c(F)ccc(C)c4F)c3F)c(-c3ccnc(NCCO)n3)s2)cn1 [Compound 155]
31 | 100 to 1000 nM | 30.1 nM | CCn1cc(-c2nc(-c3cccc(NS(=O)(=O)c4c(F)cccc4F)c3F)c(-c3ccnc(N)n3)s2)cn1 [Compound 10]
32 | > 1000 nM | 10.2 nM | Cc1ccc(F)c(S(=O)(=O)Nc2cccc(-c3nc(N4CCCCC4)sc3-c3ccnc(NC4CC4)n3)c2F)c1F [Compound 176]
33 | > 1000 nM | 78.3 nM | CNc1nccc(-c2c(-c3cccc(NS(=O)(=O)c4c(F)cccc4F)c3F)nc3cc(OC)ccn23)n1 [Compound 98]
34 | > 1000 nM | 92.8 nM | Cc1ccc(F)c(S(=O)(=O)Nc2cccc(-c3nc(-c4ccc(F)cn4)sc3-c3ccnc(N)n3)c2F)c1F [Compound 54]
35 | > 1000 nM | 103 nM | Nc1nccc(-c2sc(-c3cncc(Cl)c3)nc2-c2cccc(NS(=O)(=O)c3c(F)cccc3F)c2F)n1 [Compound 11]
36 | > 1000 nM | 33.1 nM | CNc1nccc(-c2sc(-c3ccccc3)nc2-c2cccc(NS(=O)(=O)c3c(F)ccc(C)c3F)c2F)n1 [Compound 51]
37 | > 1000 nM | 5.8 nM | CNc1nccc(-c2sc(-c3cncc(F)c3)nc2-c2cccc(NS(=O)(=O)c3c(Cl)cccc3Cl)c2F)n1 [Compound 127]
38 | > 1000 nM | 144 nM | Nc1nccc(-c2sc(-c3ccccc3)nc2-c2cccc(NS(=O)(=O)c3c(F)cccc3F)c2)n1 [Compound 18]
39 | > 1000 nM | 112 nM | COc1ccn2c(-c3ccnc(NC4CC4)n3)c(-c3cccc(NS(=O)(=O)c4c(Cl)ccc(C)c4Cl)c3F)nc2c1 [Compound 160]
40 | > 1000 nM | 30.3 nM | COc1ccn2c(-c3ccnc(NCCO)n3)c(-c3cccc(NS(=O)(=O)c4c(Cl)ccc(C)c4Cl)c3F)nc2c1 [Compound 147]
41 | > 1000 nM | 71.6 nM | CN(C)c1ccn2c(-c3ccnc(N)n3)c(-c3cccc(NS(=O)(=O)c4c(F)cccc4F)c3F)nc2c1 [Compound 95]
42 | > 1000 nM | 33.9 nM | Nc1nccc(-c2sc(-c3cnccn3)nc2-c2cccc(NS(=O)(=O)c3c(F)cccc3F)c2F)n1 [compound 39]
